Each block holds one molecule with its values, some of them ahead of it.
Legend:
[1] = test system: Japanese White male rabbits; assay: Intraocular pressure reduction and conjunctival hyperemia (Example 5, Table 1 (1)-(6)); format: in vivo; settings: intraocular pressure reduction (%), topical
Description: (§1) For the purpose of tonometry, Japanese White male rabbits (2.5-3.0 Kg) were fixed on braces. After topical anesthetization with 0.4% oxybuprocaine hydrochloride, intraocular pressure was measured using a pheumatic applanation tonometer (manufactured by Japan Alcon). After the topical application of 50 μl of the suspensions of the test drugs in a physiological saline to one eye, the intraocular pressure was measured and the intraocular pressure reduction (%) caused by each test drug was calculated. At the same time, the extent of conjunctival hyperemia was observed.

[2] = test system: Japanese White male rabbits; assay: as above; format: in vivo; design: key: −: none; +−: barely visible hyperemia; +: slight hyperemia; ++: moderate hyperemia; +++: severe hyperemia; +++*: *: lid-closing and severe hyperemia are observed; settings: extent of conjunctival hyperemia; topical, dose 100 μg/eye
Description: as §1

[3] = test system: Japanese White male rabbits; assay: as above; format: in vivo; design: key: −: scarcely observed; ±: extremely weak hyperemia; +: slight hyperemia; ++: pronounced hyperemia; +++: severe hyperemia; +++*: *: Lid closure and lacrimation were observed; settings: extent of conjunctival hyperemia, topical
Description: as §1

[4] = prior art statement; cited from earlier work
[5] = test system: Japanese White male rabbits; assay: Change in intraocular pressure with time after application (Example 4, FIG. 1); format: in vivo; settings: topical 25 μg/eye, every 1 hr until 6 hr, 6 rabbits per group
Description: FIG. 1 is a graph showing change in intraocular pressure with time after application of prostaglandins E2 to rabbits, wherein applied drugs were as follows:
For the purpose of tonometry, Japanese White male rabbits (2.5-3.0 Kg) were fixed on braces, and after topical anesthetization with 0.4% oxybuprocaine hydrochloride, intraocular pressure was measured using a pheumatic applanation tonometer (manufactured by Japan Alcon K.K.).
The test drugs were suspended in a physiological saline. A 50 μl aliquot […] of the suspension (25 μg/eye of the test drug) was topically applied to one eye. The contralateral control eye received physiological saline. Intraocular pressure was measured at every 1 hr, until 6 hr, after topical application. In this experiment, 6 rabbits per group were used, and the mean values of intraocular pressure of the treated eye at each time were calculated.

SMILES: CCCCCC(=O)CCC1C=CC(=O)C1C/C=C\CCCC(=O)OCC (stereo not shown) [Test Drug (3), 13,14-dihydro-15-keto-PGA2 ethyl ester]
Percent change of IOP ([1]; dose 100 μg/eye): 24% | Hyperemia [2]: +

SMILES: CCCCCCCC(=O)CCC1C=CC(=O)C1C/C=C\CCCC(=O)OC(C)C (stereo not shown) [Test Drug (8), 13,14-dihydro-15-keto-20-ethyl-PGA2 isopropyl ester]
Percent change of IOP ([1]; dose 50 μg/eye): 27% | Hyperemia ([3]; dose 50 μg/eye): −

SMILES: CCCCC[C@H](O)/C=C/[C@@H]1[C@@H](C/C=C\CCCC(=O)O)[C@@H](O)C[C@H]1O [PGF2]
Ocular hypotensive activity (in words) [4]: high ocular hypotensive activity

SMILES: CCCCCC(=O)CC[C@H]1[C@H](O)CC(=O)[C@@H]1C/C=C\CCCC(=O)O [Test Drug (56), 13,14-dihydro-15-keto-PGE2]
Intraocular pressure response (in words) [5]: ocular hypotensive potency without transient ocular hypertensive response

SMILES: CCCCCC(=O)/C=C/[C@@H]1[C@@H](C/C=C\CCCC(=O)O)[C@@H](O)C[C@H]1O [15-keto-PGF2]
Ocular hypotensive activity (in words) [4]: a very little

SMILES: CCCCC[C@H](O)/C=C/[C@H]1[C@H](O)CC(=O)[C@@H]1C/C=C\CCCC(=O)O [Test Drug (73), PGE2, reference compound]
Intraocular pressure response (in words) [5]: transient ocular hypertensive response

Second part, led by results:

Hyperemia ([3]; dose 250 μg/eye): ±
SMILES: CCCCCC(=O)CCC1C(=O)CC(O)C1CC#CCCCC(=O)OC (stereo not drawn) [Test Drug (34), 13,14-dihydro-15-keto-5,6-dehydro-9β-PGD2 methyl ester]
Percent change of IOP ([1]; dose 250 μg/eye): 23%

Hyperemia [2]: +
SMILES: CCCCC(F)C(=O)CCC1C(=O)CC(O)C1C/C=C\CCCC(=O)OC (stereo not shown) [Test Drug (35), 13,14-dihydro-15-keto-16R,S-fluoro-PGD2 methyl ester]
Percent change of IOP ([1]; dose 100 μg/eye): 13%

Hyperemia ([3]; dose 250 μg/eye): ±
SMILES: CCCCCC(=O)CCC1C(=O)CC(O)C1C/C=C\CCCC(=O)OCC (stereo not shown) [Test Drug (30), 13,14-dihydro-15-keto-PGD2 ethyl ester]
Percent change of IOP ([1]; dose 250 μg/eye): 20%

Hyperemia ([3]; dose 250 μg/eye): ±
SMILES: CCCCCCCCC(=O)CCC1C(O)CC(O)C1C/C=C\CCCC(=O)OC (stereo not drawn) [Test Drug (90), 13,14-dihydro-15-keto-20-n-propyl-PGF2^α methyl ester]
Percent change of IOP ([1]; dose 250 μg/eye): 25%

From patent US6420422B1, “Ocular hypotensive agents” (Sucampo Pharmaceuticals, Inc., priority 1987, dated 2002)
